Data reported in article PMC5267425, “Identification of small molecule modulators of HIV-1 Tat and Rev protein accumulation” (Retrovirology, 2017).

Test system: alternative splicing of host transcripts in HeLa rtTA HIV∆Mls cells
Assay: RT-PCR of host alternative splicing events (PSI), capillary electrophoresis
Assay type: cell-based
Experimental: To assess the effect of compounds on expression/alternative splicing of cellular RNA, two approaches were used. For both, total RNA was prepared from DMSO or compound-treated cells. In the first assay, samples were assayed by medium throughput RT-PCR to determine the inclusion levels of alternatively spliced exons and splice sites located in 73 selected events. 73 primer sets containing a fluorescently (5-FAM) labeled primer for each, were used in RT-PCR. PCR products generated were denatured in formamide and quantified using ABI Prism capillary sequencer (Life Technologies). The fragment analysis was performed on the PeakScanner software (Life Technologies) in batch mode and automated using custom scripts written in Python. The inclusion level of each exon was calculated as the amount of transcripts carrying the alternative exon relative to the total amount of all transcripts detected in the PCR reaction and results are summarized for compound-treatment in comparison to DMSO treatment. In the second assay, extracted RNA was processed using the Illumina TruSeq RNA Sample Preparation Kit (Illumina) according to the manufacturer’s instructions. The cDNA library generated was validated (passed quality control on a Bioanalyzer 1000 DNA chip (Agilent)), normalized and pooled for cluster generation. cDNA libraries were sequenced on the Illumina HiSeq 2500 (paired-end, 125 bp) with version 4 chemistry following manufacturer’s protocols. The full human genome and transcriptomic sequences were downloaded from the UCSC Genome Browser (genome.ucsc.edu) database and Ensembl (www.ensembl.org), respectively, as described by Irimia et al.. Exon annotations and genomic coordinates for alternative splicing (AS) analysis were derived from tables downloaded from the UCSC Genome Browser database. To determine gene expression (GE) or alternative splicing (AS) changes in an unbiased way, the effective number of unique mappable positions in each transcript (i.e. the effective length) was determined by aligning sequences with unique transcriptomic alignment to the human genome using Bowtie. Reads with one unique genomic alignment were then aligned against the canonical transcriptome and, for each transcript, the number of reads with one unique transcriptomic alignment were counted. The expression level of genes was quantified as corrected ‘reads per kilobase of exon model per million mapped reads’ (cRPKM), a widely used metric to estimate gene expression levels. The expression cutoff was 0.5 cRPKM, corresponding to the transcript of the gene being present if there were ≥10 reads that mapped uniquely to a single genomic locus. Approximately 19,847 Ensembl annotated protein-coding genes were compared to create a gene list of differentially expressed genes. Genes were considered differentially expressed if fold changes in cRPKM was ≥2 in compound-treated versus DMSO-treated samples.

[1] = of 70 AS events, 791 30 µM, 833 2 µM

Compound: O=C(NC(=S)NNC(=O)c1ccccc1O)c1ccc(-c2ccccc2)cc1 [Compound 833, N-([2-(2-hydroxybenzoyl)hydrazino]carbonothioyl}-4-biphenylcarboxamide]
- DPSI AGPAT4_1 chr6:161506598-161506735 (5227833 minus DMSO, mean n=3): -3.33%
- DPSI AGPAT4_1 chr6:161507269-161507439 (5227833 minus DMSO, mean n=3): -5.00%
- DPSI APLP2_1 chr11:129498717-129498884 (5227833 minus DMSO, mean n=3): -2.67%
- DPSI APP_1 chr21:26291546-26291602 (5227833 minus DMSO, mean n=3): -0.67%
- DPSI APP_1 chr21:26294201-26294368 (5227833 minus DMSO, mean n=3): -0.67%
- DPSI ATP6V0A1_1 chr17:37919833-37920004 (5227833 minus DMSO, mean n=3): 6.67%
- DPSI CA12_1 chr15:61406400-61406485 (5227833 minus DMSO, mean n=3): 0.67%
- DPSI CA12_1 chr15:61407349-61407382 (5227833 minus DMSO, mean n=3): -2.67%
- DPSI CASP9_1 chr1:15703693-15703840* (5227833 minus DMSO, mean n=3): -1.33%
- DPSI CAST_1 chr5:96090613-96090669 (5227833 minus DMSO, mean n=3): -3.33%
- DPSI CLSTN1_1 chr1:9720143-9720199 (5227833 minus DMSO, mean n=3): -17.00%
- DPSI CLSTN1_2 chr1:9739126-9739155 (5227833 minus DMSO, mean n=3): -4.67%
- DPSI CRBN_1 chr3:3191846-3191950 (5227833 minus DMSO, mean n=3): 0.00%
- DPSI CRBN_1 chr3:3191950-3191953 (5227833 minus DMSO, mean n=3): -2.00%
- DPSI CTNND1_1 chr11:57318058-57318129 (5227833 minus DMSO, mean n=3): -6.67%
- DPSI DNM1L_1 chr12:32782066-32782143 (5227833 minus DMSO, mean n=3): 7.67%
- DPSI DNM1L_1 chr12:32782465-32782497 (5227833 minus DMSO, mean n=3): -4.33%
- DPSI DRCTNNB1A_1 chr7:22953096-22953391 (5227833 minus DMSO, mean n=3): -8.33%
- DPSI EIF4A2_1 chr7:187988792-187988899 (5227833 minus DMSO, mean n=3): -10.67%
- DPSI EIF4A2_1 chr7:187988899-187988904 (5227833 minus DMSO, mean n=3): -7.67%
- DPSI EIF4H_1 chr7:73242512-73242572 (5227833 minus DMSO, mean n=3): -5.00%
- DPSI ERC1_1 chr12:1091641-1091725 (5227833 minus DMSO, mean n=3): -11.00%
- DPSI EXOC7_1 chr17:71598005-71598035 (5227833 minus DMSO, mean n=3): -3.67%
- DPSI EXOC7_1 chr17:71598819-71598911 (5227833 minus DMSO, mean n=3): -5.67%
- DPSI FAM62B_1 chr7:158238233-158238295 (5227833 minus DMSO, mean n=3): -4.67%
- DPSI FAM104A_1 chr17:68720412-68720474 (5227833 minus DMSO, mean n=3): -5.00%
- DPSI FGFR1OP2_1 chr12:27004715-27004828 (5227833 minus DMSO, mean n=3): -20.67%
- DPSI FIP1L1_1 chr4:53975538-53975646 (5227833 minus DMSO, mean n=3): -14.67%
- DPSI GGCT_1 chr7:30504943-30505080 (5227833 minus DMSO, mean n=3): 3.00%
- DPSI GGCT_1 chr7:30506676-30506822 (5227833 minus DMSO, mean n=3): -0.33%
- DPSI GLK_1 chr2:39388587-39388650 (5227833 minus DMSO, mean n=3): -13.67%
- DPSI GM130_1 chr9:130069293-130069374 (5227833 minus DMSO, mean n=3): -18.33%
- DPSI GRB10_1 chr7:50651400-50651538 (5227833 minus DMSO, mean n=3): 0.67%
- DPSI KIF13A_1 chr6:17879324-17879428 (5227833 minus DMSO, mean n=3): -0.33%
- DPSI MACF1_1 chr1:39616720-39616782 (5227833 minus DMSO, mean n=3): 14.00%
- DPSI MACF1_5 chr1:39719179-39719289 (5227833 minus DMSO, mean n=3): -18.33%
- DPSI MAP3K7_1 chr6:91310992-91311072 (5227833 minus DMSO, mean n=3): 2.67%
- DPSI MARK3_1 chr14:103034592-103034618 (5227833 minus DMSO, mean n=3): -9.00%
- DPSI MARK3_1 chr14:103036246-103036290 (5227833 minus DMSO, mean n=3): -5.33%
- DPSI MBD1_1 chr18:46054554-46054721 (5227833 minus DMSO, mean n=3): -3.33%
- DPSI MBNL2_1 chr13:96807051-96807104 (5227833 minus DMSO, mean n=3): 17.33%
- DPSI MFF_1 chr2:227901637-227901749 (5227833 minus DMSO, mean n=3): -11.67%
- DPSI MRIP_1 chr17:17024646-17024708 (5227833 minus DMSO, mean n=3): -6.33%
- DPSI MVK_1 chr12:108501990-108502134 (5227833 minus DMSO, mean n=3): 15.67%
- DPSI MVK_1 chr12:108503583-108503738 (5227833 minus DMSO, mean n=3): 16.67%
- DPSI NAP1L1_1 chr12:74747418-74747520 (5227833 minus DMSO, mean n=3): -15.67%
- DPSI NAP1L1_1 chr12:74748956-74749041 (5227833 minus DMSO, mean n=3): -18.33%
- DPSI NPHP3_1 chr3:133898264-133898347 (5227833 minus DMSO, mean n=3): -6.67%
- DPSI PDCL_1 chr9:124628716-124628892 (5227833 minus DMSO, mean n=3): 3.67%
- DPSI POLDIP3_1 chr22:41327919-41328006 (5227833 minus DMSO, mean n=3): -17.00%
- DPSI POMT1_1 chr9:133368281-133368521 (5227833 minus DMSO, mean n=3): 4.67%
- DPSI POMT1_1 chr9:133371321-133371428 (5227833 minus DMSO, mean n=3): -10.00%
- DPSI RAI14_1 chr5:34849436-34849522 (5227833 minus DMSO, mean n=3): 2.33%
- DPSI RAN_1 chr12:129923082-129923127 (5227833 minus DMSO, mean n=3): -2.00%
- DPSI RPS24_1 chr10:79467729-79467746 (5227833 minus DMSO, mean n=3): 3.00%
- DPSI SEC24B_1 chr4:110622281-110622386 (5227833 minus DMSO, mean n=3): -18.67%
- DPSI SETD5_1 chr3:9453533-9453572 (5227833 minus DMSO, mean n=3): -3.33%
- DPSI SMN2_1 chr5_h2_hap1:475625-475826 (5227833 minus DMSO, mean n=3): 2.33%
- DPSI SMN2_2 chr5_h2_hap1:466192-466246 (5227833 minus DMSO, mean n=3): -7.33%
- DPSI SPAG9_1 chr17:46408223-46408261 (5227833 minus DMSO, mean n=3): -12.00%
- DPSI SRPK2_1 chr2:104553464-104553557 (5227833 minus DMSO, mean n=3): -9.00%
- DPSI SRPK2_1 chr2:104553930-104554023 (5227833 minus DMSO, mean n=3): 5.67%
- DPSI TPM1_1 chr15:61140450-61140525 (5227833 minus DMSO, mean n=3): 1.00%
- DPSI TPM1_1 chr15:61140965-61141040 (5227833 minus DMSO, mean n=3): -1.00%
- DPSI TRIM37_1 chr17:54433741-54433857 (5227833 minus DMSO, mean n=3): -6.67%
- DPSI ZNF827_1 chr4:146903692-146903724 (5227833 minus DMSO, mean n=3): -17.67%
- DPSI ZNF827_1 chr4:146905581-146905589 (5227833 minus DMSO, mean n=3): 0.00%
- DPSI NUMB_2 chr14:72815742-72815885 (5227833 minus DMSO, mean n=3, table row r49): 3.67%
- DPSI NUMB_2 chr14:72815742-72815885 (5227833 minus DMSO, mean n=3, table row r63): 6.33%
- AS events with DPSI ≤ -10% [1]: 10
- AS events with DPSI ≥ 10% [1]: 1
- AS events with P ≤ 0.05 [1]: 22
